# Test results from US20250340538A1, “IMIDAZOLONE DERIVATIVES AS INHIBITORS OF PROTEIN KINASES IN PARTICULAR DYRK1A, CLK1 AND/OR CLK4” (PERHA PHARMACEUTICALS, priority 2021, published 2025).
# pIC50: −log10 of the molar value. Where two headings read alike, the source gives them in different places.
# Experiments:
# Assay type in all cases: biochemical
# [1] = biological target: T1, DYRK1A (Homo sapiens, UniProt Q13627); experiment: Radiometric protein kinase assay (33PanQinase Activity Assay), DYRK1A
# T1 construct: GST-fusion or His-tag (not specified per kinase); purchased ProQinase GmbH; host or cells: Sf9 insect cells or E. coli (not specified per kinase)
# Method in brief: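 Recombinant human kinase, expressed in Sf9 or E. coli, in a radiometric [γ-33P]-ATP assay at 30 °C for 60 min. Compounds tested at 10 concentrations from 10 μM to 30 nM, 1% DMSO final. 33Pi incorporation measured by scintillation counting; IC50 from dose-response curves.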
# [2] = biological target: T2, CLK2 (Homo sapiens, UniProt P49760); experiment: Radiometric protein kinase assay (33PanQinase Activity Assay), CLK2; conditions: read-out: IC50 on CLK2 (most potent CLK2 inhibitors)
# T2 construct: GST-fusion or His-tag (not specified per kinase); purchased ProQinase GmbH; host or cells: Sf9 insect cells or E. coli (not specified per kinase)
# Method in brief: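 33P incorporation counted by microplate scintillation after H3PO4 stop and NaCl washes; IC50 fitted from dose-response curves. Reactions of kinase/substrate, [γ-33P]-ATP and compound ran 60 min at 30 °C, 1% DMSO final, 10 concentrations (10 μM–30 nM).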
# [3] = biological target: T3, DYRK4 (Homo sapiens, UniProt Q9NR20); experiment: Radiometric protein kinase assay (33PanQinase Activity Assay), DYRK4; conditions: read-out: IC50 on DYRK4 (most potent DYRK4 inhibitors)
# T3 construct: GST-fusion or His-tag (not specified per kinase); purchased ProQinase GmbH; host or cells: Sf9 insect cells or E. coli (not specified per kinase)
# T3 sequence (Q9NR20 1-520): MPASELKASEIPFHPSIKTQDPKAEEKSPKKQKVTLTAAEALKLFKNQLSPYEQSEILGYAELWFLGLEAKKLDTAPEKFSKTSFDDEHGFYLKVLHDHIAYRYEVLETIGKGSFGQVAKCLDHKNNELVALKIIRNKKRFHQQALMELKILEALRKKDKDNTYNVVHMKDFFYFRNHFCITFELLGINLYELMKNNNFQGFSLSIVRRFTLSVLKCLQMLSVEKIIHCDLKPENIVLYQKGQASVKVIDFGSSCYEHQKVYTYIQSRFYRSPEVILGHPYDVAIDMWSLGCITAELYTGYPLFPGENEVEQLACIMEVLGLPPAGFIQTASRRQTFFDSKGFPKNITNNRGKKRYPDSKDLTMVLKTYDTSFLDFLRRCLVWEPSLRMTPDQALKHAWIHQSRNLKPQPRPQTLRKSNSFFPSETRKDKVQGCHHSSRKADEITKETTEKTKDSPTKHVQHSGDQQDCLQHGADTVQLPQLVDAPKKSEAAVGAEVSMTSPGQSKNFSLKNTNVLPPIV
# Experimental: (§1) Assays were performed by ProQinase GmbH (Engesserstr. 4, D-79108 Freiburg, Germany. www.proqinase.com). The IC50 profile of all compounds was determined using 12 protein kinases (CDK2/cyclin E, CK1ε, CLK1, 2, 3, 4, DYRK1A, 1B, 2, 3, 4, GSK3β).
# (§2) The compounds were provided as […] in 100% DMSO. Prior to testing, the 1 μM stock solutions were subjected to a serial, semi-logarithmic dilution using 100% DMSO as a solvent. […] In the process, 90 μl H2O were added to each well of each compound dilution plate. To minimize potential precipitation, the H2O was added to each plate only a few minutes before the transfer of the compound solutions into the assay plates. The plate was shaken thoroughly, resulting in a compound dilution plate/10% DMSO.
# For the assays (see below), 5 μL solution from each well of the compound dilution plates/10% DMSO were transferred into the assay plates. The final volume of the assay was 50 μL. All compounds were tested at 10 final assay concentrations in the range from 10 μM to 30 nM. The final DMSO concentration in the reaction cocktails was 1% in all cases. […]
# The reaction cocktails were incubated at 30° C. for 60 minutes. […] Incorporation of ^33Pi was determined with a microplate scintillation counter (Microbeta, Wallac). The IC50 values for all compounds were calculated from the dose response curves […]
# [4] = biological target: T4, DYRK1B (Homo sapiens, UniProt Q9Y463); experiment: Radiometric protein kinase assay (33PanQinase Activity Assay), DYRK1B; conditions: read-out: IC50 on DYRK1B (most potent DYRK1B inhibitors)
# T4 construct: GST-fusion or His-tag (not specified per kinase); purchased ProQinase GmbH; host or cells: Sf9 insect cells or E. coli (not specified per kinase)
# Experimental: as §1, §2
# For the assays (see below), 5 μL solution from each well of the compound dilution plates/10% DMSO were transferred into the assay plates. The final volume of the assay was 50 μL. All compounds were tested at 10 final assay concentrations in the range from 10 μM to 30 nM. The final DMSO concentration in the reaction cocktails was 1% in all cases.
# All protein kinases provided by ProQinase were expressed in Sf9 insect cells or in E. coli as recombinant GST-fusion proteins or His-tagged proteins, either as full-length or enzymatically active fragments. All kinases were produced from human cDNAs and purified by either GSH-affinity chromatography or immobilized metal. Affinity tags were removed from a number of kinases during purification. The purity of the protein kinases was examined by SDS-PAGE/Coomassie staining, the identity was checked by mass spectroscopy.
# A radiometric protein kinase assay (33PanQinase® Activity Assay) was used for measuring the kinase activity of the 12 protein kinases. All kinase assays were performed in 96-well FlashPlates™ from PerkinElmer (Boston, MA, USA) in a 50 μL reaction volume. The reaction cocktail was pipetted in four steps in the following order: • 25 μL of assay buffer (standard buffer/[γ-^33P]-ATP), • 10 μL of ATP solution (in H2O), • 5 μL of test compound (in 10% DMSO), • 10 μL of enzyme/substrate mixture.
# The reaction cocktails were incubated at 30° C. for 60 minutes. The reaction was stopped with 50 μL of 2% (v/v) H3PO4, plates were aspirated and washed two times with 200 μL 0.9% (w/v) NaCl. Incorporation of ^33Pi was determined with a microplate scintillation counter (Microbeta, Wallac). The IC50 values for all compounds were calculated from the dose response curves
# As a parameter for assay quality, the Z′-factor (Zhang et al., J. Biomol. Screen. 2: 67-73, 1999) for the low and high controls of each assay plate (n=8) was used. ProQinase's criterion for repetition of an assay plate is a Z′-factor below 0.4 (Iversen et al., J. Biomol. Screen. 3: 247-252, 2006).
# T4 sequence (Q9Y463 whole entry, the tested form may be a part): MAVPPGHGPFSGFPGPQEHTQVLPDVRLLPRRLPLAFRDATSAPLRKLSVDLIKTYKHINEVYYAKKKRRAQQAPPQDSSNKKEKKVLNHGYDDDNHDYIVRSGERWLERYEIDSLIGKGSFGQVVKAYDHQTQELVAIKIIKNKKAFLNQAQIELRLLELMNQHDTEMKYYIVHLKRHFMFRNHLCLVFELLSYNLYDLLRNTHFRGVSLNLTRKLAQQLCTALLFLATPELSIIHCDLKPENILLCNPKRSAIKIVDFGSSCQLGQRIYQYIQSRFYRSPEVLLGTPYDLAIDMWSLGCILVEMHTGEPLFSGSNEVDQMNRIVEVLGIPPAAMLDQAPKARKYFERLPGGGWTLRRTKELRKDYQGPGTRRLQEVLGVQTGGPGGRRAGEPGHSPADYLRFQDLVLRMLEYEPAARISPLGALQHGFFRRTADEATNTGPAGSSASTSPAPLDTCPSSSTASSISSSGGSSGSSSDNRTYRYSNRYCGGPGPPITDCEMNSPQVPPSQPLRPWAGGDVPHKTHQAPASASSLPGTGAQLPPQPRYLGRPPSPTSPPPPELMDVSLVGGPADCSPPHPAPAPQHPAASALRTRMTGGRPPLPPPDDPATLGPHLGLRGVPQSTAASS
# T2 sequence (P49760 whole entry, the tested form may be a part): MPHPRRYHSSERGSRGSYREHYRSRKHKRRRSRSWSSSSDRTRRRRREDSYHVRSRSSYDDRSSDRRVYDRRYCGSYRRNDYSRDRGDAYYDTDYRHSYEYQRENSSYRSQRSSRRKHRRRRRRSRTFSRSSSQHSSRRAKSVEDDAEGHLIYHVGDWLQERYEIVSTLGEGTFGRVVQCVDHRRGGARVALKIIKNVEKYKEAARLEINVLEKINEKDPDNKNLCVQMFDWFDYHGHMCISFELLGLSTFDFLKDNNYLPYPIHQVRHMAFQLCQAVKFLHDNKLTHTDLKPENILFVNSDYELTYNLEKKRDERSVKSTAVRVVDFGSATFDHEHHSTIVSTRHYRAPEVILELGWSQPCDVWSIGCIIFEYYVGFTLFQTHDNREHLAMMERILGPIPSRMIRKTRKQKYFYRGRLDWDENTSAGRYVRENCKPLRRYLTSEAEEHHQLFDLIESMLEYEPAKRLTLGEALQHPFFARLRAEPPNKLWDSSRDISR
smiles,measurement,setting,value
"O=C1NC(NC23CC4CC(CC(O)(C4)C2)C3)=N/C1=C\c1ccc2ncccc2c1 [Compound 50, (4Z)-2-[(3-hydroxy-1-adamantyl)amino]-4-(6-quinolylmethylene)-1H-imidazol-5-one]",pIC50,"[1]; IC50 class A to E, read-out: Potency Class DYRK1A",≥ 8.30
same,pIC50,"[1]; class by IC50 on DYRK1A, from dose-response curves, read-out: Potency Class DYRK1A",> 8.30
same,Selectivity Class DYRK1A vs. CLK1,[1]; ratio of IC50 on CLK1 over IC50 on DYRK1A,II (ratio between 2 and 10 fold)
same,Selectivity Class DYRK1A vs. DYRK1B,[1]; ratio of IC50 on DYRK1B over IC50 on DYRK1A,II (ratio between 2 and 10 fold)
same,pIC50,[1]; read-out: IC50 on DYRK1A (most potent DYRK1A inhibitors),≥ 8.00
same,pIC50,[2],≥ 7.00
same,pIC50,[3],≥ 6.52
same,pIC50,[4],≥ 8.00
